Data set [1] relates to ischemia induced weight increase of the small intestine. Put plainly: inhibition of ischemia induced weight increase of a definite section in the small intestine of rats. The data set is classed as in vivo. The note with it: Rattus norvegicus, 25 mg/kg oral. The protocol: 2. […] The percentage of inhibition observed after administration of a 25 mg/kg oral dose of the compounds of the invention or of the reference compounds is shown in Table 5.

The subject of data set [2] is acute brain injury. Put plainly: inhibition of acute brain injury of mice (improvement in the neurological state). Type of data set: in vivo. The note with it: intravenous. The source says: 1. […] 68, 456 (1988)]. The doses of the test compounds administered by the intravenous route and the percentage of improvement in the neurological state are summarized in Table 4.

A short description of data set [3]: acute toxicity in rats. The note with it: rat, in vivo, oral. The data set is classed as in vivo.
The test system of data set [4] is rats. Put plainly: acute toxicity in rats. Type of data set: in vivo. The note with it: 1000 mg/kg oral.
Data set [5] concerns arachidonic acid (ferrous ion dependent peroxidation). Put plainly: inhibition of the ferrous ion dependent peroxidation of arachidonic acid. The data set is classed as biochemical. The conditions noted are these: Fe2+ dependent peroxidation of arachidonic acid. How it is done: 2. The inhibition of the ferrous ion dependent peroxidation of arachidonic acid was also measured by the method of J. M. Braughler et al. [J. Biol. Chem. 262, 10438 (1987)] and J. A. Buege and S. D. Aust [Methods in Enzymology 52, 302 (1978)]. The IC50 values (expressed in micromols) of some compounds of the invention, further those of the reference compounds determined in this test are shown in Table 2.

Data set [6] relates to NADPH dependent lipid peroxidation. Put plainly: inhibition of the NADPH dependent lipid peroxidation. Type of data set: biochemical. How it is done:
3. Inhibiton of the NADPH dependent lipid peroxidation was measured according to T. J. Player and A. A. Horton [J. Neurochem. 37, 422 (1981)] and Z. Duniec [Biochem. Pharmacol. 32, 2283 (1983)]. The IC50 values (expressed in micromols) of some compounds of the invention, further those of the reference compounds determined in this test are given in Table 3.

In data set [7] the test system is rat brain homogenate (ferrous ion dependent lipid peroxidation). Put plainly: ferrous ion dependent lipid peroxidation inhibitory activity on rat brain homogenate (thiobarbituric acid reactive substances). Type of data set: biochemical. The note with it: Fe2+ dependent lipid peroxidation, TBARS. How it is done:
1. The ferrous ion dependent lipid peroxidation inhibitory activity was measured on rat brain homogenate by using the method descibed by J. M. Braughler et al., [J. Biol. Chem. 262, 10438 (1987)] and J. A. Buege and S. D. […] The IC50 value is defined as the concentration of a test substance which reduces by 50% the amount of the thiobarbituric acid reactive substances (chiefly malondialdehyde) considered to be a characteristic parameter of lipid peroxidation.

Results on 8 compounds are retold here after patent US5380724A, “Piperazine and homopiperazine derivatives, pharmaceutical compositions containing them and process for preparing same” (Gyogyszerkutato Intezet KFT, priority 1992, dated 1995).

Consider `Nc1nc(N)c2nc(-c3ccc(OCC(O)CN4CCNCC4)cc3)c(N)nc2n1` (stereo not drawn) [Example 50, 6-[4-[2-Hydroxy-3-(1-piperazinyl)propoxy]phenyl]-2,4,7-triamino-pteridine], for which, in data set [1], the inhibition in vivo at 25 mg/kg worked out at 78%. Also, the “Improvement (in the neurological state)” value in data set [2] (20 mg/kg) came to 93%. The same compound yielded an LD50 in data set [3] of over 1000 mg/kg. Further, the “death of treated animals” value in data set [4] is given as “did not provoke death of any of the treated animals”. In data set [5], this compound gave an IC50 of 15 µM.
`c1ccc(C(c2ccccc2)(c2ccccc2)N2CCN(c3cc(N4CCCC4)nc(N4CCCC4)n3)CC2)cc1` [Example 10] showed an inhibition in vivo at 25 mg/kg in data set [1] of 56%. Further, the LD50 in data set [3] is over 1000 mg/kg. The “death of treated animals” value in data set [4] is recorded as “did not provoke death of any of the treated animals”.
With `OC(COc1ccc2ccccc2c1)CN1CCCN(c2cc(N3CCCC3)nc(N3CCCC3)n2)CC1` (stereo not drawn) [Example 27], the inhibition in vivo at 25 mg/kg in data set [1] was found to be 60%. In addition, the IC50 in data set [6] came out at 22 µM; in data set [7], 8 µM. For the same compound, the “Improvement (in the neurological state)” value in data set [2] (20 mg/kg) turned out to be 82%. In data set [3], the LD50 is over 1000 mg/kg. Moreover, the “death of treated animals” value in data set [4] is reported as “did not provoke death of any of the treated animals”.
Compound `Cc1c(C)c2c(c(C)c1O)CCC(C)(CN1CCN(c3cc(N4CCCC4)nc(N4CCCC4)n3)CC1)O2` (stereo not drawn) [Example U78517F, 2-[[4-[2,6-di(1-pyrrolidinyl)-4-pyrimidinyl]-1-piperazinyl]methyl]-6-hydroxy-2,5,7,8-tetramethyl-3,4-dihydro-2H-1-benzopyrane, reference compound] returned an inhibition in vivo at 25 mg/kg in data set [1] of 20%. Besides, the IC50 was 0.7 µM in data set [6], 0.3 µM in data set [7] and over 50 µM in data set [5]. The “Improvement (in the neurological state)” value in data set [2] (20 mg/kg) was 31%.
With `Nc1cc(N2CCN(CC(O)COc3ccc4c(c3)CCCC4=O)CC2)nc(N)n1` (stereo not drawn) [Example 28], the inhibition in vivo at 25 mg/kg in data set [1] was 64%. The same compound displayed an LD50 in data set [3] of over 1000 mg/kg. The “death of treated animals” value in data set [4] was “did not provoke death of any of the treated animals”.
`C[C@@H]1C[C@H]2[C@@H]3CCC4=CC(=O)C=C[C@]4(C)C3=CC[C@]2(C)[C@H]1C(=O)CN1CCN(c2cc(N3CCCC3)nc(N3CCCC3)n2)CC1` [Example U74006F, 21-[4-[2,6-di(1-pyrrolidinyl)-4-pyrimidinyl]-1-piperazinyl]-16α-methyl-pregna-1,4,9(11)-triene-3,20-dione, reference compound]: the inhibition in vivo at 25 mg/kg in data set [1] amounted to 59%. Also, the IC50 was over 100 µM in data set [6], 39 µM in data set [7] and over 100 µM in data set [5]. In data set [2] (30 mg/kg), the “Improvement (in the neurological state)” value stood at 77%. In data set [3], the median lethal dose (LD50) was over 1000 mg/kg.
With `Nc1cc(N2CCN(C(=O)COc3ccc4ccccc4c3)CC2)nc(N)n1` [Example 34], in data set [1], testing at 25 mg/kg gave an inhibition in vivo of 69%. In addition, in data set [3], the 50% lethal dose (LD50) was over 1000 mg/kg. Moreover, the “death of treated animals” value in data set [4] is reported as “did not provoke death of any of the treated animals”.
In data set [1], `C=CCCCCCCCCC(=O)N1CCN(c2cc(N3CCCC3)nc(N3CCCC3)n2)CC1` [Example 1, 1-(10-Undecenoyl)-4-[2,6-di(1-pyrrolidinyl)-4-pyrimidinyl]piperazine] gave an inhibition in vivo at 25 mg/kg of 55%. In data set [7], this compound yielded an IC50 of 30 µM. In data set [2] (10 mg/kg), the “Improvement (in the neurological state)” value amounted to 68%. Moreover, in data set [3], the LD50 was over 1000 mg/kg. Further, in data set [4], the “death of treated animals” value was “did not provoke death of any of the treated animals”.
